# Experiments:
# BCR-ABL1 = test: Intracellular flow staining of active BCR-ABL1 (pABL); type: cell-based, human
# Experimental: (§1) Flow cytontetric analysis and sorting of HSCs. Primary CD34^+ cells were isolated by magnetic cell sorting (CD34 MultiSort; Miltenyi Biotec) and kept in IMDM supplemented with 30% FBS, 2 mM Lglutamine, rhIL-3 (20 ng/ml), rhIL-6 (20 ng/ml), rhFlt-3 ligand (100 ng/ml), and rhKL (100 ng/ml) (Stem Cell Technologies). The CD34+ fraction derived from the BM of healthy donors and the PB or BM from CML patients was stained with anti-CD34 FITC or PE, and anti-CD38 PE-Cy7 (BD Biosciences). The Lin− fraction of murine mononuclear cells was stained with anti-Sca-1 PeCy7 (BD Biosciences) and anti-c-kit APC-AlexaFluor750 (eBioscience), The CD34^+/CD38^− or the Lin−/Sca-1+/c-Kit+ (LSK) fractions were sorted by fluorescence-activated cell sorting with a FACS Aria II instrument (BD Biosciences). […]
# [1] = system: GFP+ leukemic LSK and LT-HSC from SCLtTA/BCR-ABL1/GFP mice; test: BM serial transplantation, transgenic BCR-ABL1 mice; type: in vivo, mouse
# Experimental: BM Serial Transplantation Assays and In Vivo Effect of FTY720 on LT-HSCs from Transgenic BCR-ABL1 Mice. 2×10^6 GFP+ BM or 3×10^3 GFP+ BM-derived LSK (Lin^−/Sca-1^+/Kit^+) cells from 4-week induced leukemic SCLtTA/BCR-ABL1/GFP mice were transplanted into lethally-irradiated FVB/N mice. After the onset of neutrophilia (4 weeks post-transplant), mice were FTY720- (10 mg/kg/day, i.p.) or vehicle-treated for 4 weeks. The number of total GFP+ cells and GFP+ long-term (LT)-HSCs (Lin^−/Sca-1^+/Kit^+/FLt3^−/CD150^+/CD48^−) was measured with a LSRII flow cytometer. BM cells (2×10^6, 1×10^6 and 0.5×10^6) from treated and untreated animals (8 mice/group) mixed with 2×10^5 FVB/N BM cells were transplanted into lethally-irradiated secondary recipients. Engraftment (GFP^+ in PB>0.1%) was monitored every 4 weeks, and LT-HSC frequency was determined 16 weeks after secondary transplant using Poisson statistics. All animal studies were IACUC approved.
# [2] = system: Lin^− SCLtTA-BCR-ABL1 cells; test: CFSE-mediated tracking of quiescent cells, mouse leukemic; type: cell-based; conditions: 2.5 μM FTY720
# Experimental: CFSE-mediated tracking of cell division. Carboxyfluorescein diacetate succinimidyl diester (CFSE)-stained cells (CellTrace CFSE Proliferation Kit: Invitrogen) were cultured in the presence of the indicated drugs (dosed at time zero and at day three), and the cells were harvested after 3 or 6 days in culture, and stained with anti-CD34 PE, Annexin-V V450, and the viability stain 7-AAD (BD Bioscience) to determine the number of viable quiescent cells (CFSEmax/CD34^+/7-AAD− cells) and the percentage of quiescent and apoptosis-committed cells (CFSEmax/CD34+/Annexin V+/7-AAD±). Cells were sorted into dividing and quiescent populations for Western blot analysis. For assessment of mouse quiescent leukemic HSCs, Lin- cells from 8 week-induced SCLtTA/BCR-ABL1 mice were CFSE-stained and used as described above. Quiescent cells (CFSE^max/CD34^+) were reported as a fraction of the initial number of CD34^+ cells.
# β-catenin = β-catenin immunofluorescence; type: cell-based, human
# From the text: Immunofluorescence and proximity ligation assay. CD34^+/CD38^− cells from CML patient samples or LSK cells derived from induced leukemic mice were sorted, treated in liquid culture with the indicated drugs and cytospun onto glass slides. Slides were fixed in 3.7% formaldehyde, penneabilized with 0.05% Triton X-100, and stained with an Anti-®-catenin primary antibody (Cell signaling), a secondary goat F(ab′) anti-rabbit conjugated to Alexa Fluor 647, and the nuclear stain DAPI (Invitrogen); slides were mounted with Slowfade antifade reagent (Invitrogen). Microphotographs were obtained with a Zeiss LSM 510 confocal laser-scanning microscope with C-Apochromat 63/1.2 W objective. A minimum of three fields for each slide were acquired. For the Proximity Ligation Assay (PLA) CD34+/CD38− CML cells were treated, fixed, and permeabilized as described above. The slides were then simultaneously stained with a mix of mouse anti-PP2A (Millipore) and rabbit anti-SET (Globozyme) antibodies. The PLA procedure (Duolink; Olink Bioscience) was performed according to manufacturer instructions. An average of 20 z-stack ([…]) were captured with a Zeiss LSM 510 confocal laser-scanning microscope with C-Apochromat 63/1.2 W objective; at least three fields/slide were acquired. Three-dimensional projections were generated and positive signals/cell were calculated by ImageJ software (NIH).
# JAK2 = test: Intracellular flow staining of active JAK2 (pJAK2); type: cell-based, human; conditions: CML CFSE^max/CD34^+ cells
# Experimental: as §1
# [3] = FTY720 10 mg/kg/day i.p., 4-week treatment
smiles,measurement,setting,value
CCCCCCCCc1ccc(CCC(N)(CO)CO)cc1 [FTY720],inhibition of BCR-ABL1 activity (pABL levels),BCR-ABL1; bulk CD34 CML cells,occurred in the bulk
same,inhibition of BCR-ABL1 activity (pABL levels),BCR-ABL1; quiescent fraction (CFSE^max) of CD34 CML cells,not in the quiescent fraction
same,secondary recipients with leukemic engraftment,"[1]; BM from treated mice, Table I Exp 1",25%
same,Engraftment-positive at 16 weeks (>0.1% GFP+),"[1]; Experiment #1, cell dose in 2nd recipients 2,000,000",2/8
same,LT-HSC frequency,"[1]; Experiment #2, Poisson statistics, 16 weeks after secondary transplant",0.45 × 10^−6
same,Engraftment-positive at 16 weeks (>0.1% GFP+),"[1]; Experiment #2, cell dose in 2nd recipients 500,000",0/8
same,Engraftment-positive at 16 weeks (>0.1% GFP+),"[1]; Experiment #2, cell dose in 2nd recipients 1,000,000",3/7
same,Engraftment-positive at 16 weeks (>0.1% GFP+),"[1]; Experiment #2, cell dose in 2nd recipients 2,000,000",5/7
same,reduction of GFP^+ (leukemic) LSK,[1]; [3],≥ 50%
same,reduction of splenic and/or BM GFP^+ LT-HSC,[1]; [3],≥ 70%
same,reduction of frequency of leukemic LT-HSCs,"[1]; limiting dilution analysis, Table I Exp. 2",~80%
same,decrease in CFSE^max HSCs,[2],70-90%
same,β-catenin degradation,"β-catenin; CD34^+/CD38^− CML, leukemic LSK, and 32D-BCR/ABL cells",induced β-catenin degradation
same,β-catenin expression,β-catenin; Ph^+ CD34^+/CD38^− cells,markedly decreased
same,JAK2 activity (pJAK2),JAK2,suppressed

# Reference: US9220706B2, “Inhibition of leukemic stem cells by PP2A activating agents” (Ohio State Innovation Foundation, priority 2012, dated 2015)
